Drawing on article PMC11314561, “Design and Synthesis of Novel Aminoindazole-pyrrolo[2,3-b]pyridine Inhibitors of IKKα That Selectively Perturb Cellular Non-Canonical NF-κB Signalling” (Molecules, 2024), this text covers IC50 and inhibition for 3 molecules.

The structures appear in SMILES notation.

Assay [1] concerns IKKβ-mediated p65 phosphorylation (Ser536) in U2OS cells. Nature of the assay: TNFα-stimulated p65 (Ser536) phosphorylation, Western blotting. In kind it is cell-based. The settings on record: Homo sapiens, 1 h pre-treatment, TNFα 30 min. The protocol:
To assess the translation of the biochemical potencies and selectivities described above to a cell-based setting, exemplars from the series were initially examined for inhibitory action against IKKs in the U2OS osteosarcoma cell line. This cell type was utilised to represent cells with a proliferative phenotype dependent on the constitutively activated IKKα-mediated non-canonical NF-κB pathway. Compounds 5r [SU1261]
U2OS cells were cultured in McCoy’s 5A Modified Medium, and PC-3M-Luc-C6 prostate cancer cells were cultured in Minimum Essential Medium (MEM), each containing 10% (v/v) Foetal Calf Serum (FCS), L-glutamine ([…]), and penicillin/streptomycin (250 units/mL; 100 μg/mL) and incubated in a humidified atmosphere at 37 °C with 5% (v/v) CO2. Cells were grown to near confluence and prior to experimentation rendered quiescent by serum deprivation for 24 h.
To examine the potential impact of compounds on canonical NF-κB signalling, cells were then exposed to vehicle (DMSO; 0.05% (v/v)) or increasing concentrations of compounds (0.01–30 µM) for 1 h prior to treatment with TNF⍺ (20 ng/mL) for 30 min. Whole-cell extracts were prepared, and the status of IκB⍺, phospho-p65 (Ser536), p65, and phospho-p105 ([…]) was also assessed by Western blotting.
Each figure/panel of Western blotting data represents one of at least three separate experiments. Western blots were scanned and imaged using Adobe Photoshop 5.0.2 software and polypeptide bands were semi-quantified by scanning densitometry using the Scion Image program. Data were normalised to fold expression/inhibition relative to ‘agonist plus vehicle’ treatment and expressed as mean ± s.e.m. IC50 values were established by curve fitting using the Hill equation.
Figure 11 Compound 5r [SU1261] inhibits FCS-stimulated p100 phosphorylation (Ser866/870) with no impact on TNFα-stimulated IkBα degradation and limited impact on phosphorylation of p65 (Ser536) in U2OS osteosarcoma cells. […] (0.3–30 µM) for 1 h prior to treatment with FCS (10% (v/v)) for 4 h, and phospho-p100 (Ser866/870) was assessed by Western blotting. […]
Background: A western blot detects proteins with antibodies after separation by electrophoresis.

Assay [2] addresses CDK6/cyclinD3(h) (Homo sapiens, UniProt Q00534). Nature of the assay: kinase panel. In kind it is biochemical. Put shortly: (§1)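 Percentage inhibition was recorded for each compound against a broad kinase panel of 231 enzymes. Because of its close structural resemblance to another analogue, one compound was screened against 98 chosen kinases.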
Assay [3] has as its target MARK1(h) (Homo sapiens, UniProt Q9P0L2). The assay is described as follows: kinase panel. In kind it is biochemical. An outline of the steps: as §1
Assay [4] addresses T1, SGK(h) (Homo sapiens, UniProt O00141).
T1 sequence (O00141 1-431): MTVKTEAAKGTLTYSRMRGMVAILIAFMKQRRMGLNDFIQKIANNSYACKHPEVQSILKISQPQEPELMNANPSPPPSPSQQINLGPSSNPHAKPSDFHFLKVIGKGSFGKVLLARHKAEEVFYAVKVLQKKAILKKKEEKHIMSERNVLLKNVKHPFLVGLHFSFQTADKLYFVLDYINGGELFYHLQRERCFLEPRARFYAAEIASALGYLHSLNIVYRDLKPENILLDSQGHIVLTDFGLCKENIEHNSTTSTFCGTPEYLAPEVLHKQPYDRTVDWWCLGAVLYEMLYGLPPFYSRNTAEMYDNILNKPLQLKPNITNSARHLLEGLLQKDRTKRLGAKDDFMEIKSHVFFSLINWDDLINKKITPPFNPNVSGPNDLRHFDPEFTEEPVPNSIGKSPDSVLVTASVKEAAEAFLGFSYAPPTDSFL
The assay is described as follows: kinase panel. In kind it is biochemical. An outline of the steps:
as §1

Assay [5] deals with TrkB(h) (Homo sapiens, UniProt Q16620). The assay is described as follows: kinase panel. In kind it is biochemical. An outline of the steps:
as §1

Chain of CDK6/cyclinD3(h) (Q00534 whole entry): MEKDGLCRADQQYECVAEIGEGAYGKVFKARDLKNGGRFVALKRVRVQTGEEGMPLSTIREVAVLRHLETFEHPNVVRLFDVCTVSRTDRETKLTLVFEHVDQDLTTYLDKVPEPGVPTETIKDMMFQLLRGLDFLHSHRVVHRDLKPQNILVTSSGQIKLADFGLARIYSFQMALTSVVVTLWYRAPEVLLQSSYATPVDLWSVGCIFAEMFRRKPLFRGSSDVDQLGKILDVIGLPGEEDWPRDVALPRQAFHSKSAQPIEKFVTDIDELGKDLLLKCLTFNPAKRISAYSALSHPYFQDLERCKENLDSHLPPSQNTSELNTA
Chain of CDK6/cyclinD3(h) (P30281 whole entry partner): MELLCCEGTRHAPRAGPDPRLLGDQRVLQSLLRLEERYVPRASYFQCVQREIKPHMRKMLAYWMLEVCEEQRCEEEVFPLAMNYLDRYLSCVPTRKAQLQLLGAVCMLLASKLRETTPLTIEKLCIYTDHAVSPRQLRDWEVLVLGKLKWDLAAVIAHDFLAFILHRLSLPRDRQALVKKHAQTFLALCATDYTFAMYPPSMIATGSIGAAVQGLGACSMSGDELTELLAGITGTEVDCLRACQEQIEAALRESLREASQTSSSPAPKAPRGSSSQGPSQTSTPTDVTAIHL
Chain of TrkB(h) (Q16620 32-822): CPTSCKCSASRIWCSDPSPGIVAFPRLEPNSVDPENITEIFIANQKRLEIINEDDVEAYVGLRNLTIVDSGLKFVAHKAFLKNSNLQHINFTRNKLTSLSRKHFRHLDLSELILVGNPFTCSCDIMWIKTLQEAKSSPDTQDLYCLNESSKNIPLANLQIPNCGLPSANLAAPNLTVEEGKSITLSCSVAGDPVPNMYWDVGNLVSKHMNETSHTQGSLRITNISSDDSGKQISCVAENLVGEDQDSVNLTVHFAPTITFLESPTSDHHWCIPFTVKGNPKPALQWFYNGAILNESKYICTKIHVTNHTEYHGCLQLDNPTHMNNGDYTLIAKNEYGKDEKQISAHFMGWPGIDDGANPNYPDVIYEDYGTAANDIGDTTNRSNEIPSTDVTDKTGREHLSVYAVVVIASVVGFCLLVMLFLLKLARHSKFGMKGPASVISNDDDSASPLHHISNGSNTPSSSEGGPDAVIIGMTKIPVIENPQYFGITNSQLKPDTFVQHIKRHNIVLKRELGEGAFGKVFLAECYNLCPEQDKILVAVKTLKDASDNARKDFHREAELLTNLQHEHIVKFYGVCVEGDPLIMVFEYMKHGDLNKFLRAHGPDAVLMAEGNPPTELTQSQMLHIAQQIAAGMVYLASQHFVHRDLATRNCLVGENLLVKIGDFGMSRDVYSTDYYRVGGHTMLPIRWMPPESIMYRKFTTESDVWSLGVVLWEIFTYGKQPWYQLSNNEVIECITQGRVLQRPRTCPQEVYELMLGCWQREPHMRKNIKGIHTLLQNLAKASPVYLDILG
Chain of MARK1(h) (Q9P0L2 whole entry): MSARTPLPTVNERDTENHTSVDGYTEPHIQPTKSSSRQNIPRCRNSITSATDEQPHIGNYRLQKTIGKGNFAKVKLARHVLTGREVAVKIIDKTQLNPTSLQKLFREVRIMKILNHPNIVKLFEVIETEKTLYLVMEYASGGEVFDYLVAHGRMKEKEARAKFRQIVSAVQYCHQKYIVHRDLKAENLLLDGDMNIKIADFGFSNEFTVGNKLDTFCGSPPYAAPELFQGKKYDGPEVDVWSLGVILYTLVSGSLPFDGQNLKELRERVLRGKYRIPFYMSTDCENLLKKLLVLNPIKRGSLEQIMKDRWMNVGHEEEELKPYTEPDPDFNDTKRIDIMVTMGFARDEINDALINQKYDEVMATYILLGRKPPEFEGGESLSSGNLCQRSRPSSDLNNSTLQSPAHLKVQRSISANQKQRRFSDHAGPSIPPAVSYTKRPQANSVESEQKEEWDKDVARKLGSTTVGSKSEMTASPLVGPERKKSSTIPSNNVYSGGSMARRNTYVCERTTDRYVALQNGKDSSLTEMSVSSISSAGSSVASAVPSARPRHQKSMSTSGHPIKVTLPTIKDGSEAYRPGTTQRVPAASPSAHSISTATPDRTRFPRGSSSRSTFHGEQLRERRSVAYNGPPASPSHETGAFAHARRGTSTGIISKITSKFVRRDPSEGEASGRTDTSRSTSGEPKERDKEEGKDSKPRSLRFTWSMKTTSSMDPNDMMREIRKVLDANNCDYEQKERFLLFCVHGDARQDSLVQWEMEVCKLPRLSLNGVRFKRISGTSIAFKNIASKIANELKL

On to `Nc1n[nH]c2ccc(-c3ccnc4[nH]c(-c5ccccc5)cc34)cc12` [Compound 4], for which the half-inhibitory concentration (IC50) (usually the concentration at which inhibition is half-maximal) in assay [1] is 0.3 µM. Also, the inhibition (in general, the drop in the measured response relative to a control, in per cent) at 1 µM turned out to be 82% in assay [2], 84% in assay [3], 15% in assay [4] and 65% in assay [5].

As for `Nc1n[nH]c2ccc(-c3ccnc4[nH]c(-c5cccc(OCc6ccccc6)c5)cc34)cc12` [Compound 5r [SU1261]], in assay [1], the IC50 came out at 5.64 µM. Besides, the inhibition at 1 µM is 17% in assay [2], 28% in assay [3], -10% in assay [4] and -37% in assay [5].

Take `Nc1n[nH]c2ccc(-c3ccnc4[nH]c(-c5ccnc(OCc6ccccc6)c5)cc34)cc12` [Compound 6g [SU1349]]: the IC50 in assay [1] was above 30 µM. Further, the inhibition at 1 µM in assay [2] is -13%; in assay [3], 17%; in assay [4] it was 22%; in assay [5], -34%.
